biological target: T1, human IGF-IR (Homo sapiens, UniProt P08069); assay: cellular "Capture ELISA" test for activity against IGF-I induced IGF-IR autophosphorylation; type: cell-based; settings: IGF-I (10 ng/ml) induced IGF-IR autophosphorylation in NIH-3T3 mouse fibroblasts transfected with human IGF-IR (NWT-21 cell line); 90 min compound incubation
T1 construct: complete human IGF-IR cDNA: GenBank Acc; No. NM_000875; expressed in transfected cells; host or cells: NIH-3T3 mouse fibroblasts (NWT-21 cell line), prepared as in Kato et al., J. Biol. Chem. 268, 2655-61, 1993
T1 sequence (P08069 31-1367): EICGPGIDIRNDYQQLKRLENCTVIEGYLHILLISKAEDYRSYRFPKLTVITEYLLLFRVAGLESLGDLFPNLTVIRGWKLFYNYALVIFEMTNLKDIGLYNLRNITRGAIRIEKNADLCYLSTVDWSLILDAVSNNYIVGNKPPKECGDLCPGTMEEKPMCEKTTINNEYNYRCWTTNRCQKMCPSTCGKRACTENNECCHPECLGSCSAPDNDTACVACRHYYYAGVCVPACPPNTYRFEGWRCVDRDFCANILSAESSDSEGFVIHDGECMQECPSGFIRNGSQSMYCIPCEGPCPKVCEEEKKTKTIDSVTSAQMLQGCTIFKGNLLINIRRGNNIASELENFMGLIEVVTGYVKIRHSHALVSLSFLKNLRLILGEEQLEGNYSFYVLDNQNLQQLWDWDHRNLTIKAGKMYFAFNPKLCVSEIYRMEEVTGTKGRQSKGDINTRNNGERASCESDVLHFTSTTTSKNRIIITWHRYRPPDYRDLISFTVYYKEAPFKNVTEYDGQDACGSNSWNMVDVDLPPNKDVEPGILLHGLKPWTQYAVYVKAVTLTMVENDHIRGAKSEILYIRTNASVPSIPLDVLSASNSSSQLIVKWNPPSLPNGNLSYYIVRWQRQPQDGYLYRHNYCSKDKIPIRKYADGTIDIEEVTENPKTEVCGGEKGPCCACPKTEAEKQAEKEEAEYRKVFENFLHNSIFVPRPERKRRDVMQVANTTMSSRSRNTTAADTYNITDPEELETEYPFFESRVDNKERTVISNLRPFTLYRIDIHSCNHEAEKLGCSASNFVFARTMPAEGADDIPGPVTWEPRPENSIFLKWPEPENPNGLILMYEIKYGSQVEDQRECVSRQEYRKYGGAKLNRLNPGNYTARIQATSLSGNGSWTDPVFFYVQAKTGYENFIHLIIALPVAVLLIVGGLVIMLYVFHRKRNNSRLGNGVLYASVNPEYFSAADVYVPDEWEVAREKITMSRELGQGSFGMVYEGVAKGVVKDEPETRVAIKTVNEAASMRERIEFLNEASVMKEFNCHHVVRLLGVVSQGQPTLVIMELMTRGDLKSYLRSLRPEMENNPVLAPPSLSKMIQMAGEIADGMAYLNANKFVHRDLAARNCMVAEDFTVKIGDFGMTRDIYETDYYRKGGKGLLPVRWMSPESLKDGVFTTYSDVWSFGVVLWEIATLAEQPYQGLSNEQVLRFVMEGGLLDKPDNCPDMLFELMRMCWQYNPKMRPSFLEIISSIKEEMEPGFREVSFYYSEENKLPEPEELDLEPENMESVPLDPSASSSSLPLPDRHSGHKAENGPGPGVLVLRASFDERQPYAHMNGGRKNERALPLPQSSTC
Description: In this assay the activity of the compounds of the invention against Insulin-like growth factor I (IGF-I) induced autophosphorylation of the IGF-IR is determined. The assay is conducted as follows:
The cells which overexpress human IGF-IR are cultured in Dulbecco's minimal essential (DMEM) medium, containing 10% Fetal Calf Serum (FCS). […] On day 3 the medium is discarded and the cells are incubated for 24 h in minimal medium (DMEM, containing 0.5% FCS).
The plates are washed twice with 0.05% (v/v) Tween-20 in Phosphate-Buffered Saline (PBS) and once with nanopure H2O. […] After blocking, the plates are washed once with nanopure H2O.
After incubating the extracts and the secondary antibody for 2 h at 4° C., the extracts are discarded, the plates are washed twice with 0.05% (v/v) Tween-20 in PBS and once with nanopure water.
90 μl/well AP substrate (CDP-Star; obtained from Tropix; Cat. No.: MS100RY) are then added and the plates are incubated for 45 min at RT in the dark, followed by measuring AP activity in a Packard Top Count Microplate Scintillation Counter. The IC50 values for the compounds of formula I are calculated via linear regression analysis using the GraphPad In-stat program (GraphPad Software, USA).
Test for activity against IGF-I induced IGF-IR autophosphorylation using the cellular “Capture ELISA” test
The cellular “Capture ELISA” test is carried out as described above.

IC50 [nM] | SMILES
350 | Nc1ncnc2c1c(-c1cccc(OCc3ccccc3)c1)cn2[C@H]1CC[C@H](N2CCC2)CC1 [Example 11, trans-7-(4-Azetidin-1-yl-cyclohexyl)-5-(3-benzyloxy-phenyl)-7H-pyrrolo[2,3-d]pyrimidin-4-ylamine]
120 | Nc1ncnc2c1c(-c1cccc(OCc3ccccc3)c1)cn2[C@H]1CC[C@@H](N2CCC2)CC1 [Example 10, cis-7-(4-Azetidin-1-yl-cyclohexyl)-5-(3-benzyloxy-phenyl)-7H-pyrrolo[2,3-d]pyrimidin-4-ylamine]
400 | CCN(CC)[C@H]1CC[C@H](n2c(C)c(-c3cccc(OCc4ccccc4)c3)c3c(N)ncnc32)CC1 [Example 47, trans-5-(3-Benzyloxy-phenyl)-7-(4-diethylamino-cyclohexyl)-6-methyl-7H-Pyrrolo[2,3-d]pyrimidin-4-ylamine]
